{"source": "paper PMC11665553", "about": "“12-Lipoxygenase inhibition delays onset of autoimmune diabetes in human gene replacement mice” (JCI Insight, 2024)", "key": {"NOD.hALOX12 mice [1]": {"system": "NOD.hALOX12 mice", "experiment": "NanoString spatial proteomics of insulitic and insulin-positive areas in NOD.hALOX12 mice", "format": "in vivo, mouse", "from_the_text": "To specifically interrogate the nature of immune cells within the insulitic region, we performed spatial tissue-based proteomics (NanoString). We used insulin immunostaining and nuclei staining to identify β cells and the surrounding insulitic regions. Prevalidated antibodies in the GeoMx mouse immune panel were used to probe for immune cell subtypes in the peri-islet insulitic region and within the islet. […] This reduction in myeloid cell populations was accompanied by a decrease in T and B cells populations, including CD4^+, CD3^+, CD8^+, and CD19^+ cells (Figure 2F and Supplemental Figure 2, A and B). […] Enhanced PD-L1/PD-1 interactions shift T cells to less aggressive, more regulatory phenotypes ([21]).\nParaffin embedded pancreata were used for NanoString spatial proteomics analysis. Tissues were stained with morphology markers: AF-647–conjugated insulin (Cell Signaling Technology, 9008s; 1:400) and nuclei marker (SYTO13). Tissues were hybridized using a pre-validated mouse GeoMx Immune cell panel (NanoString, GMX-PROCONCT-MICP) comprising the following markers: PD-1, CD11c, CD8a, PanCk, MHC II, CD19, CTLA4, SMA, CD11b, CD3e, fibronectin, Ki-67, CD4, GZMB, F4/80, CD45, PD-L1; housekeeping genes: histone H3, S6, GAPDH; and IgG antibodies: Rb IgG, Rat IgG2a, and Rat IgG2b for background subtraction. All markers were conjugated to unique UV-photocleavable oligos for indexing. At least 5 or 6 islets with insulitis were chosen as regions of interest (ROIs) per mouse based on the morphology markers (insulin and nuclei). The ROIs were segmented into insulitic region and insulin^+ region for each islet. Oligonucleotides from the segmented ROIs were photocleaved, collected in a 96-well plate, and reads were counted using nCounter (NanoString). Scaling was performed to normalize for any differences in tissue surface area and depth. After scaling, reads were normalized to housekeeping markers and background was subtracted using IgG markers."}, "[2]": {"experiment": "Pharmacokinetics after single p.o. dose in C57BL/6J mice (plasma LC-MS/MS)"}, "human islets": {"system": "human islets", "parameters": "method as in PMID 28609824", "conditions": "cited from earlier work"}, "NOD.hALOX12 mice [3]": {"system": "NOD.hALOX12 mice", "experiment": "Oxidative stress immunostaining (4-HNE, GPx1) in NOD.hALOX12 mice", "format": "in vivo, mouse", "description": "(§1) We, therefore, immunostained pancreatic sections for markers of cell death and proliferation in the islet.\n(§2) For immunofluorescent staining, pancreatic sections were stained with the following antibodies: anti-insulin (Dako, IR002; 1:4), anti-glucagon (Santa Cruz Biotechnology, sc514592; 1:50), anti-B220 (BioLegend, 03201; 1:100), anti-CD3 (Abcam, ab16669; 1:200), anti-PCNA (Santa Cruz Biotechnology, sc-7907; 1:100), anti–4-HNE (Abcam, ab46545; 1:200), and anti-GPx1 (Santa Cruz Biotechnology, sc-22145; 1:100). Highly cross-adsorbed Alexa Fluor secondary antibodies (Thermo Fisher Scientific) were used at a dilution of 1:500. Tissue sections were stained with DAPI (Thermo Fisher Scientific) to label cell nuclei. The Nikon A1 confocal microscopy was used to capture images. CellProfiler v4.1 software (https://cellprofiler.org/) was used for image analysis."}, "NOD.hALOX12 mice [4]": {"system": "NOD.hALOX12 mice", "experiment": "Islet cell death and proliferation staining (TUNEL, H2A.X, PCNA) in NOD.hALOX12 mice", "description": "as §1\nPancreatic tissues were fixed using 4% paraformaldehyde. After fixation, the tissues were embedded in paraffin and sectioned with a thickness of 5 μm. Three sections per mouse were used for analysis, with each section being spaced 100 μm apart. Tissue sections were immunostained with anti-insulin (ProteinTech, 15848-1-AP; 1:200), anti-glucagon (Abcam, ab92517; 1:200), anti–12-LOX (Thermo Fisher Scientific, PA5-26020; 1:200), anti–12/15-LOX (Abcam, ab80221; 1:200), anti-CD3 (Abcam, ab16669; 1:200), anti-F4/80 (Sigma-Aldrich, D2S9R; 1:150), anti-MAC2 (Thermo Fisher Scientific, EbioM3/38; 1:200), and anti-H2A.X (Cell Signaling Technology, 9718s; 1:200) primary antibodies followed by conjugated anti-rabbit Ig (Vector Laboratories) secondary antibody. A DAB (3,3′-diaminobenzedine) Peroxidase Substrate Kit from Vector Laboratories was used for detection. After immunostaining, the tissue sections were counterstained with hematoxylin (Sigma-Aldrich). Images were acquired using a BZ-X810 fluorescence microscope (Keyence) and β/α cell mass was quantified by insulin^+ or glucagon^+ area and whole pancreas area.\nas §2\nA TUNEL assay was used to determine β cell death in pancreatic islets. The assay was performed according to the protocol provided by the manufacturer (Abcam) and HRP-DAB chemistry was used for detection. Two sections, spaced 100 μm apart, were used for each mouse. Images were captured using a BZ-X810 fluorescence microscope system (Keyence). The number of TUNEL^+ cells was assessed manually per islet."}, "NOD.hALOX12 mice [5]": {"system": "NOD.hALOX12 mice", "experiment": "Diabetes incidence (prevention) in NOD.hALOX12 mice", "format": "in vivo, mouse", "conditions": "30 mg/kg p.o. daily, 6–10 weeks of age", "protocol": "Mice were followed for diabetes development (blood glucose ≥250 mg/dL on 2 consecutive days) until 25 weeks of age (Figure 3A).\nDiabetes incidence was determined by observing 2 consecutive blood glucose values greater than 250 mg/dL."}, "[6]": {"conditions": "Insulitic Area, Fig 2F source data, individual values"}, "[7]": {"conditions": "female NOD.hALOX12 mice, 30 mg/kg p.o., 4 weeks"}, "[8]": {"conditions": "sheet SFig 2A, individual regions of interest"}, "[9]": {"conditions": "C57BL/6J, mouse, plasma, po, 30 mg/kg"}, "[10]": {"conditions": "female NOD.hALOX12 mice, 4 weeks of treatment"}, "[11]": {"conditions": "sheet Fig 4E, individual mice, listed as VLX"}, "[12]": {"conditions": "sheet Fig 4D, individual mice, listed as VLX"}}, "note": "“And” between values parts separate entries of the source, which are not always exact repeats. Identical values can stand only once. “Also recorded” adds a separate entry of the source.", "data": [{"smiles": "COc1cccc(CNc2ccc(S(=O)(=O)Nc3nc4ccccc4s3)cc2)c1O", "note": "[VLX-1005]", "values": [{"measurement": "CD45 (first CD45 row)", "setting": "NOD.hALOX12 mice [1]; [6]", "result": "5.25 and 3.49 and 3.636 and 8.487 and 3.645 and 3.942 and 4.828 and 3.892 and 3.054 and 8.111"}, {"measurement": "CD45 (second CD45 row)", "setting": "NOD.hALOX12 mice [1]; [6]", "result": "-0.2135 and 0.0264 and 0.3853 and 4.031 and -1.253 and 0.3826 and 0.2212 and -1.155 and 0.06453 and 3.867"}, {"measurement": "CTLA4", "setting": "NOD.hALOX12 mice [1]; [6]", "result": "1.939 and 2.368 and 2.417 and 1.307 and 2.276 and 2.4212 and 3.583 and 2.587 and 3.2171 and 2.563"}, {"measurement": "F4/80", "setting": "NOD.hALOX12 mice [1]; [6]", "result": "0.2536 and 0.7983 and 1.224 and 1.023 and -0.1728 and 1.356 and 2.254 and 0.8327 and -0.1455 and 1.282"}, {"measurement": "GZMB", "setting": "NOD.hALOX12 mice [1]; [6]", "result": "4.352 and 4.4072 and 5.2506 and 2.9798 and 5.432 and 6.733 and 6.076 and 5.882 and 4.529 and 3.344"}, {"measurement": "MHC II", "setting": "NOD.hALOX12 mice [1]; [6]", "result": "-0.6174 and 1.207 and 0.8883 and -0.3662 and -0.4066 and -0.144 and -0.3371 and 1.073 and -0.07508 and -1.247"}, {"measurement": "PD-1", "setting": "NOD.hALOX12 mice [1]; [6]", "result": "-0.3236 and 0.1793 and 1.041 and 1.538 and -1.244 and -0.5413 and -0.07496 and 0.52 and -0.1742 and 0.5415"}, {"measurement": "PD-L1", "setting": "NOD.hALOX12 mice [1]; [6]", "result": "1.897 and 1.722 and 1.56 and 0.2193 and 1.6509 and 2.371 and 2.045 and 2.4831 and 1.059 and 0.2909"}, {"measurement": "Myeloid population subtypes (macrophages, dendritic cells) in insulitic and islet areas", "setting": "NOD.hALOX12 mice [1]; [7]", "result": "notable reduction"}, {"measurement": "PD-L1 levels (spatial proteomics)", "setting": "NOD.hALOX12 mice [1]; [7]", "result": "increased levels"}, {"measurement": "T and B cell populations (CD4+, CD3+, CD8+, CD19+) in insulitic and islet areas", "setting": "NOD.hALOX12 mice [1]; [7]", "result": "decrease"}, {"measurement": "CD4", "setting": "NOD.hALOX12 mice [1]; [8]", "result": "0.3826 and 0.2212 and -1.155 and 0.06453 and 3.867 and -0.2135 and 0.0264 and 0.3853 and 4.031 and -1.253"}, {"measurement": "CD8", "setting": "NOD.hALOX12 mice [1]; [8]", "result": "1.856 and 1.666 and 1.577 and 1.141 and 2.8916 and 1.46 and 1.4593 and 2.166 and 2.266 and 1.44"}, {"measurement": "CD11b", "setting": "NOD.hALOX12 mice [1]; [8]", "result": "5.565 and 5.634 and 5.068 and 4.855 and 6.029 and 5.147 and 5.277 and 5.327 and 5.94 and 5.07"}, {"measurement": "CD11c", "setting": "NOD.hALOX12 mice [1]; [8]", "result": "2.93 and 3.146 and 2.8254 and 2.641 and 4.743 and 2.876 and 1.502 and 2.598 and 4.232 and 2.537"}, {"measurement": "CD19", "setting": "NOD.hALOX12 mice [1]; [8]", "result": "0.2718 and 0.8536 and 0.6292 and 1.249 and 2.864 and 0.1873 and -0.4029 and 0.4865 and 2.831 and -0.3159"}, {"measurement": "CD-3e", "setting": "NOD.hALOX12 mice [1]; [8]", "result": "4.049 and 3.547 and 4.013 and 3.889 and 3.319 and 3.27 and 3.43 and 3.812 and 3.482 and 3.738"}, {"measurement": "CTLA4", "setting": "NOD.hALOX12 mice [1]; [8]", "result": "2.4212 and 3.583 and 2.587 and 3.2171 and 2.563 and 1.939 and 2.368 and 2.417 and 1.307 and 2.276"}, {"measurement": "F4/80", "setting": "NOD.hALOX12 mice [1]; [8]", "result": "1.356 and 2.254 and 0.8327 and -0.1455 and 1.282 and 0.2536 and 0.7983 and 1.224 and 1.023 and -0.1728"}, {"measurement": "GZMB", "setting": "NOD.hALOX12 mice [1]; [8]", "result": "6.733 and 6.076 and 5.882 and 4.529 and 3.344 and 4.352 and 4.4072 and 5.2506 and 2.9798 and 5.432"}, {"measurement": "PD-1", "setting": "NOD.hALOX12 mice [1]; [8]", "result": "-0.5413 and -0.07496 and 0.52 and -0.1742 and 0.5415 and -0.3236 and 0.1793 and 1.041 and 1.538 and -1.244"}, {"measurement": "PD-L1", "setting": "NOD.hALOX12 mice [1]; [8]", "result": "2.371 and 2.045 and 2.4831 and 1.059 and 0.2909 and 1.897 and 1.722 and 1.56 and 0.2193 and 1.6509"}, {"measurement": "Ki67", "setting": "NOD.hALOX12 mice [1]; sheet SFig 2B, individual regions of interest", "result": "1.4 and 1.3004"}, {"measurement": "AUC%extrap_obs", "setting": "[2]; C57BL/6J mice, 30 mg/kg p.o., mean ± SD", "result": "0.342 ± 0.133", "unit": "%"}, {"measurement": "AUC(0-inf)", "setting": "[2]; [9]", "result": 15100, "unit": "ng·h/mL"}, {"measurement": "AUC(0-t)", "setting": "[2]; [9]", "result": 15000, "unit": "ng·h/mL"}, {"measurement": "Cmax", "setting": "[2]; [9]", "result": 13300, "unit": "ng/mL"}, {"measurement": "MRT inf", "setting": "[2]; [9]", "result": "2.57 ± 0.38", "unit": "h"}, {"measurement": "half-life", "setting": "[2]; [9]", "result": "3.24 ± 0.07", "unit": "h"}, {"measurement": "Cytotoxicity in human islets", "setting": "human islets", "result": "without evidence of cytotoxicity"}, {"measurement": "Effect on function of cytokine-treated human islets in vitro", "setting": "human islets; proinflammatory cytokines", "result": "efficacy in reversing the insulin secretory defects; also recorded: protect human islets in vitro against dysfunction caused by proinflammatory cytokines"}, {"measurement": "4-HNE immunostaining (oxidative stress marker) vs placebo", "setting": "NOD.hALOX12 mice [3]; [10]", "result": "reduced immunostaining"}, {"measurement": "GPx1 levels in β cells", "setting": "NOD.hALOX12 mice [3]; [10]", "result": "increase"}, {"measurement": "4-hne", "setting": "NOD.hALOX12 mice [3]; [11]", "result": "300.045 and 304.934 and 308.173 and 287.237 and 299.135"}, {"measurement": "GPx1", "setting": "NOD.hALOX12 mice [3]; [11]", "result": "416.4 and 443.77 and 439.26 and 458.35"}, {"measurement": "Islet cell death (TUNEL, H2A.X staining) vs vehicle", "setting": "NOD.hALOX12 mice [4]; [10]", "result": "decreased islet cell death"}, {"measurement": "β cell proliferation (PCNA immunostaining) vs vehicle", "setting": "NOD.hALOX12 mice [4]; [10]", "result": "decreased β cell proliferation"}, {"measurement": "H2Ax", "setting": "NOD.hALOX12 mice [4]; [12]", "result": "0.25 and 0.166 and 0 and 0.14"}, {"measurement": "PCNA", "setting": "NOD.hALOX12 mice [4]; [12]", "result": "1.4 and 1.2 and 0.9 and 1.83"}, {"measurement": "Mice protected from diabetes development at 25 weeks of age", "setting": "NOD.hALOX12 mice [5]; female NOD.hALOX12 mice", "result": 60, "unit": "%"}, {"measurement": "Mice protected from diabetes development at 25 weeks of age", "setting": "NOD.hALOX12 mice [5]; male NOD.hALOX12 mice", "result": 75, "unit": "%"}]}]}
